Assay results from article PMC11809919, “Quinoxaline-based anti-schistosomal compounds have potent anti-plasmodial activity” (PLOS Pathogens, 2025).
Values joined by “and” are separate entries in the source; they are usually repeats but may differ in a detail not shown here. Equal values may be shown once. Read-outs that look alike come from different tables or passages of the source.

Tests used:
[1] = system: P. falciparum PfQRP1 mutants (G1612V, D1863Y, D1829*, D1829A); assay: Dose-response assay on CRISPR-edited PfQRP1 mutant lines; format: cell-based, Plasmodium falciparum
Procedure: To generate the PfQRP1 hydrolase mutants (D1829stop and D1829A), the pDC2-Cas9-gRNA-donor plasmid was transfected into the P. falciparum Dd2 line. Donor plasmid (50 µg) containing the sgRNA ([…]) and a pfqrp1 homology region of 672 bp, centred on the D1829 residue, was used for transfection. Transfectants were selected using 5 nM WR99210 (a potent inhibitor of P. falciparum dihydrofolate reductase (DHFR) provided by Jacobus Pharmaceuticals) for 8 days, followed by culturing without drug until parasites were observed. Parasite clones were obtained using limiting dilution cloning. Confirmation of gene editing was performed with allele-specific PCR (forward primer […] and reverse primer […]) and Sanger sequencing using an internal primer ([…]).
(§1) Compound dose-response assays were performed in flat-bottom 96-well plates. Tightly synchronized ring-stage parasites were diluted to 1% parasitemia at 2% hematocrit, and incubated with a two-fold serial dilution of compounds in complete medium. Untreated parasites or uninfected RBCs were included in the assay plate as controls. Parasite growth was assessed after 72 h by lysing parasites using 2× lysis buffer consisting of 10 mM Tris-HCl, 5 mM EDTA, 0.1% w/v saponin, and 1% v/v Triton X-100, supplemented with 2× SYBR Green I (Molecular Probes). The fluorescence was measured using a FluorStar Omega v5.11 plate reader. IC50 analysis was performed using GraphPad Prism v9, and statistical significance was determined by a two-sided Mann-Whitney U test. All assays were performed in technical duplicate with at least three biological replicates, as noted in the figure legends.

[2] = system: 3D7 parasites (hemoglobin, 'free' heme, hemozoin); assay: Cellular heme fractionation assay; format: cell-based, Plasmodium falciparum; conditions: 3D7, 0.5 – 2.5× IC50, 30 h
From the text: Cellular heme fractionation to measure the amounts of different heme species was thereafter conducted as previously described. […] Pellets were then resuspended in 1× PBS (pH 7.5) and an aliquot of the trophozoite suspension used to quantify the total number of trophozoites isolated using flow cytometry. Contents of the remaining trophozoite pellet were then released by hypotonic lysis and sonication. […] The UV−visible spectrum of each heme fraction as an Fe(III)heme−pyridine complex was measured using a multi-well plate reader (Spectramax 340PC; Molecular Devices). The total amount of each heme species was quantified using a heme standard curve whereby the mass of each heme-Fe species per trophozoite (fg/cell) was calculated by dividing the total amount of each heme species by the corresponding number of parasites in that fraction as determined by flow cytometry. Statistical comparisons and analyses for trends were made on GraphPad Prism version 10 using Students’ t-test with Welch correction. The total amount of heme obtained from each fraction was quantified using a standard curve prepared from a 100 μg/mL heme standard solution of hematin (porcine) in 0.3 M NaOH. Serial dilutions of this standard were carried out in a 96-well plate with 100 μL 0.3 M NaOH as a blank. […] The visible spectra of heme as Fe(III)heme-pyridine complex were recorded in a multi-well plate reader. The amount of heme Fe per cell was calculated by dividing the total heme Fe in each fraction by the number of cells determined in each fraction.

[3] = system: β-hematin formation; assay: Detergent-based β-hematin inhibition assay; format: biochemical; conditions: cell-free, NP40 detergent, pH 4.8
Procedure: From this stock 40 μL of each was delivered to wells in the final column (column 12) of a 96-well plate together with distilled water (120 μL) and NP40 detergent (305.5 mM, 40 μL). […] A serial dilution of each compound (100 μL) from column 12 to column 2 was carried out. Column 1 served as a blank with 0 mM sample. A 25 mM hematin stock solution was prepared by sonicating hemin in DMSO for one minute and then suspending 179 μL of this in a 1 M acetate buffer (20 mL, pH 4.8). […] The plate was covered and incubated at 37°C for 5 h. […] Acetone (60 μL) was then added to assist with hematin dispersion. The UV-vis absorbance of the plate wells was read on a SpectraMax […] plate reader.

[4] = system: Dd2-Polδ clones C22-1.1 and C22-2.1; assay: Dose-response assay on compound 22-selected clones (cross-resistance); format: cell-based, Plasmodium falciparum
Procedure: Resistance selections were performed using a mutator parasite line Dd2-Polδ with an elevated mutation rate. Three independent flasks with either 1×10^8 or 1×10^9 parasites each were treated with 5×IC50, and parasite death was monitored by microscopy (Giemsa staining). […] After eight days, compounds were removed from the media and the media was changed on alternate days. […] For recrudescent cultures, compound susceptibility was determined by dose-response assays. Parasite clones were obtained by limiting dilution and harvested for genomic DNA extraction, followed by whole-genome sequencing.
as §1

[5] = system: P. falciparum Dd2; assay: Compound dose-response assay (72 h, SYBR Green I), Dd2; format: cell-based, Plasmodium falciparum; conditions: for Selectivity index HepG2/Dd2: HepG2 72 h CC50 / Pf Dd2 IC50; for IC50: Plasmodium falciparum, DD2, 72 h, 72 h, asexual blood stage
Procedure: (§2) P. falciparum parasites were cultured at 3% hematocrit in RPMI 1640 (Gibco) medium consisting of 0.5% Albumax II (Gibco), 25 mM HEPES (Sigma), 0.21% sodium bicarbonate, 1x GlutaMAX (Gibco), 25 μg/mL gentamicin (Gibco). A tri-gas mixture (1% O2, 3% CO2, and 96% N2) was used for parasite cultures. Parasites were synchronized using a sorbitol and Percoll density gradient method. The following parasite strains were used: 3D7, Dd2 (MR4, MRA-156, T. Wellems), GB4 (MR4, MRA-925, T. Wellems), UG659 (P. Rosenthal), Tanzania (MR4, MRA-1169, Michal Fried), Cam/PH0212C (R. Fairhurst), and Cam3.II/ PH0306-C (R. Fairhurst). Transfection was performed using ring-stage parasites (5–8% parasitemia) using a Gene Pulser Xcell (Biorad) electroporator.
as §1

[6] = system: HepG2 cells; parameters: method as in Padalino et al. [13]; conditions: ref Padalino et al. [13], cited from earlier work
[7] = system: S. mansoni schistosomula; parameters: method as in Padalino et al. [13]; conditions: ref Padalino et al. [13], cited from earlier work
[8] = system: P. falciparum 3D7; assay: Compound dose-response assay (72 h, SYBR Green I), 3D7; format: cell-based, Plasmodium falciparum; conditions: for Change of anti-plasmodial activity relative to compound 22: 3D7 and Dd2; for Selectivity index HepG2/3D7: HepG2 72 h CC50 / Pf 3D7 IC50; for IC50: 72 h, asexual blood stage
Procedure: as §2, §1

[9] = read-out: βH Inhibition IC50, individual biological replicate
[10] = HepG2, 24 h, read-out: 24 h CC50
[11] = HepG2, 72 h, read-out: 72 h CC50
[12] = 72 h, read-out: 72 h -phenotype EC50
[13] = average of phenotype and motility, read-out: Average EC50
[14] = Plasmodium falciparum, 3D7, 72 h

Compound | Effect of D1829 stop / D1829A PfQRP1 mutation on IC50 [1] | Levels of 'free' heme or hemozoin relative to untreated controls [2] | IC50 [3, 9] | Shift in IC50 in compound 22-selected clones versus parental Dd2-Polδ [4] | IC50 ([3]; mean of two biological replicates, listed as chloroquine, read-out: βH Inhibition IC50, mean) | IC50 ([3]; mean of two biological replicates, read-out: βH Inhibition IC50, mean) | Selectivity index HepG2/Dd2 [5] | IC50 [5] | CC50 [6, 10] | CC50 [6, 11] | EC50 [7, 12] | EC50 [7, 13] | EC50 ([7]; read-out: Motility EC50) | Change of anti-plasmodial activity relative to compound 22 [8] | Selectivity index HepG2/3D7 [8] | IC50 [8, 14] | IC50 [8] | Loss in potency ([8]; relative to compound 22)
2-N,3-N-bis[3-(trifluoromethyl)phenyl]quinoxaline-2,3-diamine [MMV665794] | less potent | no significant changes | 257 µM and 217 µM | – | – | – | – | – | – | – | – | – | – | – | – | – | – | –
CNC(=O)CNc1cnc2ccc(-c3ccc(OC)c(OC)c3)cc2n1 [BQR695, 2-[[7-(3,4-dimethoxyphenyl)quinoxalin-2-yl]amino]-N-methylacetamide, reference compound] | – | – | – | no cross resistance | – | – | – | – | – | – | – | – | – | – | – | – | – | –
CCN(CC)CCCC(C)Nc1ccnc2cc(Cl)ccc12 (stereo not shown) [Chloroquine, chloroquine] | – | significant concentration-dependent increases | 16.7 µM and 14.5 µM | – | 16 µM | 15.6 µM | – | – | – | – | – | – | – | – | – | – | – | –
CC(=O)Nc1ccc2nc(Nc3ccc(Cl)c(Cl)c3)c(Nc3ccc(Cl)c(Cl)c3)nc2c1 [Compound 22c] | – | – | – | – | – | – | 25.4 | 0.181 µM | 8.6 µM | 4.59 µM | 3.04 µM | 2.91 µM | 2.79 µM | greatly diminished activity | 58.1 | 0.079 µM | – | –
O=C(Nc1ccc2nc(Nc3ccc(Cl)c(Cl)c3)c(Nc3ccc(Cl)c(Cl)c3)nc2c1)c1ccco1 [Compound 22f] | – | – | – | – | – | – | 14.9 | 0.382 µM | 14.8 µM | 5.69 µM | 1.91 µM | 1.95 µM | 2 µM | greatly diminished activity | 19.8 | 0.287 ± 0.0033 µM | 0.287 µM | –
O=[N+]([O-])c1ccc2nc(Nc3cccc(Cl)c3)c(Nc3cccc(Cl)c3)nc2c1 [Compound 25] | – | – | – | – | – | – | 9.2 | 0.0634 µM | 6.76 µM | 0.58 µM | 1.22 µM | 1.26 µM | 1.3 µM | – | 10.1 | 0.0577 µM | – | –
O=[N+]([O-])c1ccc2nc(Nc3ccc(Cl)cc3)c(Nc3ccc(Cl)cc3)nc2c1 [Compound 26] | – | – | – | – | – | – | 3.5 | 0.0368 µM | 13.1 µM | 0.13 µM | 0.42 µM | 0.41 µM | 0.39 µM | – | 4.3 | 0.0299 µM | – | –
O=[N+]([O-])c1ccc2nc(Nc3cccc(C(F)(F)F)c3)c(Nc3cccc(C(F)(F)F)c3)nc2c1 [Compound 30] | – | – | – | modest shift with one of the compound 22-resistant clones | – | – | 40.9 | 0.022 µM | 5.85 µM | 0.9 µM | 0.34 µM | 0.38 µM | 0.43 µM | – | 67.2 | 0.0134 µM | – | –
O=[N+]([O-])c1ccc2nc(Nc3ccc(F)c(C(F)(F)F)c3)c(Nc3ccc(F)c(C(F)(F)F)c3)nc2c1 [Compound 32] | – | – | – | modest shift with one of the compound 22-resistant clones | – | – | 24.1 | 0.0278 µM | 7.75 µM | 0.67 µM | 0.89 µM | 0.72 µM | 0.54 µM | – | 40.4 | 0.0166 µM | – | –
COc1ccc(Nc2nc3ccc([N+](=O)[O-])cc3nc2Nc2ccc(OC)c(C(F)(F)F)c2)cc1C(F)(F)F [Compound 35] | – | – | – | modest shift with one of the compound 22-resistant clones | – | – | 3.8 | 0.112 µM | 5.64 µM | 0.43 µM | 0.63 µM | 0.66 µM | 0.69 µM | – | 7.4 | 0.0578 µM | – | –
O=[N+]([O-])c1ccc2nc(NCCc3ccccc3)c(NCCc3ccccc3)nc2c1 [Compound 37] | – | – | – | – | – | – | 17.1 | 0.264 µM | 4.4 µM | 4.52 µM | 2.2 µM | 1.84 µM | 1.47 µM | – | 20.5 | 0.22 µM | – | ten-fold
C[C@H]1Cc2c([nH]c3cc(Cl)c(F)cc23)[C@@]2(N1)C(=O)Nc1ccc(Cl)cc12 [KAE609] | – | – | > 500 µM | – | – | – | – | – | – | – | – | – | – | – | – | – | – | –
